Target: HIV-1 RT wild-type enzyme (Human immunodeficiency virus type 1 group M subtype B (isolate HXB2) (HIV-1), UniProt P04585)
Experiment: HIV-1 reverse transcriptase inhibitory activity (RT polymerase assay)
Type: biochemical
Conditions: HIV-1 RT wild-type enzyme 83 pM; RNA-dependent DNA polymerase activity; read-out: IC50
Protocol: Determination of HIV-1 Reverse Transcriptase Inhibitory Activity
The heterodimeric nucleic acid substrate used in the HIV-1 RT polymerase reactions was generated by annealing the DNA primer, biotinylated pD500 (Sigma Aldrich, USA, 5′-biotin-ttg aaa tga ctg cgg tac ggc-3′), SEQ ID NO. 1 to the nucleotide RNA template t500 (derived from hepatitis C virus [HCV] sequence, IBA, Germany, 5′-[…]-3′), SEQ ID NO 2). […] The mixture was then preincubated on an orbital shaker for 30 min at room temperature in microtiter plates (Costar 3365, Corning, USA). A polymerization reaction was initiated by the addition of RNA template/pD500 DNA primer hybrid (16.6 nM final of RNA/DNA hybrid) and dNTPs (2 μM dATP, dGTP, dCTP and 66.6 nM Ru-dUTP (Meso Scale Discovery, USA)). Plate was sealed and incubated for 5-10 min at room temperature on an orbital shaker. Plate was then incubated for 90 min at 37° C. and reactions quenched with 60 μl quenching buffer (50 mM EDTA, 0.7% BSA, 0.7% Tween-20, 0.017% sodium azide in PBS). The resulting solution was incubated at room temperature for an additional 5 min and then 50 μL was transferred to pre-blocked Avidin plates (L15AA, Meso Scale Discovery). Each well of Avidin plate was blocked for 1 h at room temperature with 100 μL 5% BSA in PBS. Blocking solution was removed by tapping vigorously on filter paper to remove all excess liquid. Reaction on pre-blocked avidin plate proceeded for 60 min at room temperature and then contents removed by tapping vigorously on filter paper to remove all excess liquid. After washing plate 3 times with 150 μL 1×PBS and blotting dry between cycles, 150 μL 1× Read Buffer T (4× Read Buffer T, Meso Scale Discovery) was added and incubated for 5 min at room temperature before counting on a Sector Imager […] (Meso Scale Discovery). Titration curves and IC50 values were calculated using a four parameter logisitc fit according to standard procedures. Briefly, % Inhibition=100×((sample raw value)−(mean value of the low control or 0% inhibition))/((mean value of wells representing 100% inhbition)−(mean value of 0% inhbition)). In this assay, low control wells contain DMSO (0% inhbition) and 100% inhibition wells contain 1 μM efavirenz.

Q: For `N#Cc1cc(Cl)cc(Oc2c(C(F)(F)F)ncn(Cc3cc(-c4ccc(F)c(F)c4)c(=O)[nH]n3)c2=O)c1` [Example 29, 3-chloro-5-((1-((5-(3,4-difluorophenyl)-6-oxo-1,6-dihydropyridazin-3-yl)methyl)-6-oxo-4-(trifluoromethyl)-1,6-dihydropyrimidin-5-yl)oxy)benzonitrile], which IC50 is on record?
A: 3 nM

Q: For `N#Cc1cc(Cl)cc(Oc2c(C(F)(F)F)ncn(Cc3cc(-c4ccc(OC(F)F)cc4)c(=O)[nH]n3)c2=O)c1` [Example 30, 3-chloro-5-((1-((5-(4-(difluoromethoxy)phenyl)-6-oxo-1,6-dihydropyridazin-3-yl)methyl)-6-oxo-4-(trifluoromethyl)-1,6-dihydropyrimidin-5-yl)oxy)benzonitrile], which IC50 is on record?
A: 4 nM

Q: For `Cc1ccc(-c2cc(Cn3cnc(C(F)(F)F)c(Oc4cc(Cl)cc(C#N)c4)c3=O)n[nH]c2=O)cc1` [Example 31, 3-chloro-5-((6-oxo-1-((6-oxo-5-(p-tolyl)-1,6-dihydropyridazin-3-yl)methyl)-4-(trifluoromethyl)-1,6-dihydropyrimidin-5-yl)oxy)benzonitrile], which IC50 is on record?
A: 5 nM

Q: For `CC(C)Oc1ccc(-c2cc(Cn3cnc(C(F)(F)F)c(Oc4cc(Cl)cc(C#N)c4)c3=O)n[nH]c2=O)cc1F` [Example 32, 3-chloro-5-((1-((5-(3-fluoro-4-isopropoxyphenyl)-6-oxo-1,6-dihydropyridazin-3-yl)methyl)-6-oxo-4-(trifluoromethyl)-1,6-dihydropyrimidin-5-yl)oxy)benzonitrile], which IC50 is on record?
A: 13 nM

Q: How did the IC50 turn out when `N#Cc1cc(Cl)cc(Oc2c(C(F)(F)F)ncn(Cc3cc(-c4cc(F)cc(F)c4)c(=O)[nH]n3)c2=O)c1` [Example 33, 3-chloro-5-((1-((5-(3,5-difluorophenyl)-6-oxo-1,6-dihydropyridazin-3-yl)methyl)-6-oxo-4-(trifluoromethyl)-1,6-dihydropyrimidin-5-yl)oxy)benzonitrile] was run?
A: 7 nM

Q: For `N#Cc1cc(Cl)cc(Oc2c(C(F)(F)F)ncn(Cc3cc(-c4ccc(F)c(Cl)c4)c(=O)[nH]n3)c2=O)c1` [Example 34, 3-chloro-5-((1-((5-(3-chloro-4-fluorophenyl)-6-oxo-1,6-dihydropyridazin-3-yl)methyl)-6-oxo-4-(trifluoromethyl)-1,6-dihydropyrimidin-5-yl)oxy)benzonitrile], which IC50 is on record?
A: 7 nM

Q: `N#Cc1cc(Cl)cc(Oc2c(C(F)(F)F)ncn(Cc3cc(-c4ccc(F)cc4F)c(=O)[nH]n3)c2=O)c1` [Example 35, 3-chloro-5-((1-((5-(2,4-difluorophenyl)-6-oxo-1,6-dihydropyridazin-3-yl)methyl)-6-oxo-4-(trifluoromethyl)-1,6-dihydropyrimidin-5-yl)oxy)benzonitrile] was tested. Which IC50 did it give?
A: 8 nM

Q: How did the IC50 turn out when `N#Cc1cc(Cl)cc(Oc2c(C(F)(F)F)ncn(Cc3cc(-c4cccc(Cl)c4)c(=O)[nH]n3)c2=O)c1` [Example 36, 3-chloro-5-((1-((5-(3-chlorophenyl)-6-oxo-1,6-dihydropyridazin-3-yl)methyl)-6-oxo-4-(trifluoromethyl)-1,6-dihydropyrimidin-5-yl)oxy)benzonitrile] was run?
A: 4 nM

Q: For `Cc1cc(-c2cc(Cn3cnc(C(F)(F)F)c(Oc4cc(Cl)cc(C#N)c4)c3=O)n[nH]c2=O)ccc1F` [Example 37, 3-chloro-5-((1-((5-(4-fluoro-3-methylphenyl)-6-oxo-1,6-dihydropyridazin-3-yl)methyl)-6-oxo-4-(trifluoromethyl)-1,6-dihydropyrimidin-5-yl)oxy)benzonitrile], which IC50 is on record?
A: 5 nM

Q: For `Cc1cccc(-c2cc(Cn3cnc(C(F)(F)F)c(Oc4cc(Cl)cc(C#N)c4)c3=O)n[nH]c2=O)c1F` [Example 38, 3-chloro-5-((1-((5-(2-fluoro-3-methylphenyl)-6-oxo-1,6-dihydropyridazin-3-yl)methyl)-6-oxo-4-(trifluoromethyl)-1,6-dihydropyrimidin-5-yl)oxy)benzonitrile], which IC50 is on record?
A: 110 nM

Q: Which IC50 does the source give for `Cc1ccc(F)c(-c2cc(Cn3cnc(C(F)(F)F)c(Oc4cc(Cl)cc(C#N)c4)c3=O)n[nH]c2=O)c1` [Example 39, 3-chloro-5-((1-((5-(2-fluoro-5-methylphenyl)-6-oxo-1,6-dihydropyridazin-3-yl)methyl)-6-oxo-4-(trifluoromethyl)-1,6-dihydropyrimidin-5-yl)oxy)benzonitrile] here?
A: 10 nM

Q: With `N#Cc1cc(Cl)cc(Oc2c(C(F)(F)F)ncn(Cc3cc(-c4ccc(F)cc4Cl)c(=O)[nH]n3)c2=O)c1` [Example 40, 3-chloro-5-((1-((5-(2-chloro-4-fluorophenyl)-6-oxo-1,6-dihydropyridazin-3-yl)methyl)-6-oxo-4-(trifluoromethyl)-1,6-dihydropyrimidin-5-yl)oxy)benzonitrile] as the compound, how does the IC50 read?
A: 70 nM

Q: `N#Cc1cc(Cl)cc(Oc2c(C(F)(F)F)ncn(Cc3cc(-c4cccc(F)c4Cl)c(=O)[nH]n3)c2=O)c1` [Example 41, 3-chloro-5-((1-((5-(2-chloro-3-fluorophenyl)-6-oxo-1,6-dihydropyridazin-3-yl)methyl)-6-oxo-4-(trifluoromethyl)-1,6-dihydropyrimidin-5-yl)oxy)benzonitrile] was tested. Which IC50 did it give?
A: 59 nM

Q: `Cc1ccc(-c2cc(Cn3cnc(C(F)(F)F)c(Oc4cc(Cl)cc(C#N)c4)c3=O)n[nH]c2=O)c(F)c1` [Example 42, 3-chloro-5-((1-((5-(2-fluoro-4-methylphenyl)-6-oxo-1,6-dihydropyridazin-3-yl)methyl)-6-oxo-4-(trifluoromethyl)-1,6-dihydropyrimidin-5-yl)oxy)benzonitrile] was tested. Which IC50 did it give?
A: 7 nM

Q: Which IC50 does the source give for `N#Cc1cc(Cl)cc(Oc2c(C(F)(F)F)ncn(Cc3cc(-c4cccc(Cl)c4F)c(=O)[nH]n3)c2=O)c1` [Example 43, 3-chloro-5-((1-((5-(3-chloro-2-fluorophenyl)-6-oxo-1,6-dihydropyridazin-3-yl)methyl)-6-oxo-4-(trifluoromethyl)-1,6-dihydropyrimidin-5-yl)oxy)benzonitrile] here?
A: 9 nM

Q: With `COc1cccc(-c2cc(Cn3cnc(C(F)(F)F)c(Oc4cc(Cl)cc(C#N)c4)c3=O)n[nH]c2=O)c1F` [Example 44, 3-chloro-5-((1-((5-(2-fluoro-3-methoxyphenyl)-6-oxo-1,6-dihydropyridazin-3-yl)methyl)-6-oxo-4-(trifluoromethyl)-1,6-dihydropyrimidin-5-yl)oxy)benzonitrile] as the compound, how does the IC50 read?
A: 4 nM

Q: Which IC50 does the source give for `COc1ccc(-c2cc(Cn3cnc(C(F)(F)F)c(Oc4cc(Cl)cc(C#N)c4)c3=O)n[nH]c2=O)c(F)c1` [Example 45, 3-chloro-5-((1-((5-(2-fluoro-4-methoxyphenyl)-6-oxo-1,6-dihydropyridazin-3-yl)methyl)-6-oxo-4-(trifluoromethyl)-1,6-dihydropyrimidin-5-yl)oxy)benzonitrile] here?
A: 6 nM

Q: For `N#Cc1cc(Cl)cc(Oc2c(C(F)(F)F)ncn(Cc3cc(-c4ccc(Cl)c(F)c4)c(=O)[nH]n3)c2=O)c1` [Example 46, 3-chloro-5-((1-((5-(4-chloro-3-fluorophenyl)-6-oxo-1,6-dihydropyridazin-3-yl)methyl)-6-oxo-4-(trifluoromethyl)-1,6-dihydropyrimidin-5-yl)oxy)benzonitrile], which IC50 is on record?
A: 5 nM

Q: Which IC50 does the source give for `N#Cc1cc(Cl)cc(Oc2c(C(F)(F)F)ncn(Cc3cc(-c4cc(Cl)ccc4F)c(=O)[nH]n3)c2=O)c1` [Example 47, 3-chloro-5-((1-((5-(5-chloro-2-fluorophenyl)-6-oxo-1,6-dihydropyridazin-3-yl)methyl)-6-oxo-4-(trifluoromethyl)-1,6-dihydropyrimidin-5-yl)oxy)benzonitrile] here?
A: 11 nM
